From patent publication US6605620B1, “Cyclic amine compounds and pharmaceutical composition containing the same” (Kowa Co., Ltd., priority 2001, dated 2003) come the findings set out here.

Structures are written as SMILES. Structures can show the parent of a compound that is named as a salt.

The first test concerns U937 cells adhered to HUVEC stimulated by TNFα. In words: Inhibitory effect on cell adhesion (U937 adhesion to TNFα-stimulated HUVEC). Particulars: Homo sapiens; U937 adhesion to TNFα-stimulated HUVEC; fluorescence (PKH2) readout. Type of test: cell-based, human. How it is done:
The test was conducted by reference to the method by Ross et al. (J. Biol. Chem., 267 8537-8543 (1992)). More specifically, after human umbilical venous endothelial cells (HUVEC) were cultured on a 48-well plate to confluent growth, TNFα was added thereto. Upon elapsed time of 5 hours after the addition, U937, which was a human monocytic/histocytic cell fluorescence-labeled with PKH2 (product of Sigma-Aldrich Co., Ltd.), was added in a proportion of 1×10^6 cells per well. After the plate was left at rest at room temperature for 1 hour, unadhered U937 was washed out and lysed in 1% Triton X-100 to measure a remaining fluorescence intensity (excitation wavelength: 480 nm; measuring wavelength: 530 nm). HUVEC and U937 were cultured in EGM-2 (product of Sanko Junyaku K. K.) and 10% FCS-containing RPMI1640, respectively. Each test agent was added to HUVEC upon the addition of TNFα and to U937 24 hours prior to the cell adhesion test. The inhibitory activity was calculated out as IC50 value after inhibitory ratio at each concentration of test compounds was determined. The inhibitory ratio was calculated according to the equation […], wherein A is the number of U937 cells adhered to HUVEC stimulated by TNFα when no test agent was added, B is the number of U937 cells adhered to HUVEC not stimulated by TNFα when no test agent was added, and C is the number of U937 cells adhered to HUVEC stimulated by TNFα when the test agent was added. As control compounds, Test Compound 1 described in Japanese Patent Application Laid-Open No. 9-143075 and dilazep described in Japanese Patent Application Laid-Open No. 11-92382 were simultaneously evaluated.
The IC50 is the midpoint of a concentration-inhibition curve. Lower therefore signals greater potency in that assay. Regarding `COc1cc(C(=O)OCCCN2CCCN(CCCOC(=O)c3cc(OC)c(OC)c(OC)c3)CC2)cc(OC)c1OC` [Dilazep, dilazep, reference compound], the 50% inhibitory concentration (IC50) is > 10000 nM.
Still for that read-out and setting: in the case of `COc1cc(-c2cc(CN3CC[C@H](N(C)Cc4ccnc(-c5cc(OC)c(OC)c(OC)c5)c4)C3)ccn2)cc(OC)c1OC` [Example 3, (3S)-3-[N-Methyl-N-[[2-(3,4,5-trimethoxyphenyl)pyridin-4-yl]methyl]amino]-1-[[2-(3,4,5-trimethoxyphenyl)pyridin-yl]methyl]pirrolidine Tertrahydrochloride] it was 300 nM; in that of `COc1cc(-c2cc(CNC3CCN(Cc4ccnc(-c5cc(OC)c(OC)c(OC)c5)c4)CC3)ccn2)cc(OC)c1OC` [Example 5, 1-[[2-(3,4,5-Trimethoxyphenyl)pyridin-4-yl]methyl]-4-[[2-(3,4,5-trimethoxyphenyl)pyridin-4-yl]methylamino]piperidine Difumalate], 200 nM.
Compound `COc1cc(-c2cncc(CN(C)C3CCN(Cc4ccnc(-c5cc(OC)c(OC)c(OC)c5)c4)CC3)c2)cc(OC)c1OC` [Example 7, 4-[N-Methyl-N-[[5-(3,4,5-trimethoxyphenyl)pyridin-3-yl]methyl]amino]-1-[[2-(3,4,5-trimethoxyphenyl)pyridin-4-yl]methyl]piperidine Difumarate] returned an IC50 of 300 nM.
On the same count and under the same terms, in the case of `COc1ccc(N(Cc2ccnc(-c3cc(OC)c(OC)c(OC)c3)c2)C2CCN(Cc3ccnc(-c4cc(OC)c(OC)c(OC)c4)c3)CC2)cc1` [Example 10, 4-[N-(4-Methoxyphenyl)-N-[[2-(3,4,5-trimethoxypheny)pyridin-4-yl]methyl]amino]-1-[[2-(3,4,5-trimethoxyphenyl)pyridin-4-yl]methyl]piperidine Trihydrochloride] it was 40 nM; in that of `COc1ccc(N(Cc2cncc(-c3cc(OC)c(OC)c(OC)c3)c2)C2CCN(Cc3ccnc(-c4cc(OC)c(OC)c(OC)c4)c3)CC2)cc1` [Example 13, 4-[N-(4-Methoxyphenyl)-N-[[5-(3,4,5-trimethoxyphenyl)pyridin-3-yl]methyl]amino]-1-[[2-(3,4,5-trimethoxyphenyl)pyridin-4-yl]methyl]piperidine Trihydrochloride], 30 nM.
On the same count and under the same terms, in the case of `COc1cc(-c2cc(CN3CCC(N(Cc4ccccc4)Cc4ccnc(-c5cc(OC)c(OC)c(OC)c5)c4)CC3)ccn2)cc(OC)c1OC` [Example 16, 4-[N-Benzyl-N-[[2-(3,4,5-trimethoxyphenyl)pyridin-4-yl]methyl]amino]-1-[[2-(3,4,5-trimethoxyphenyl)pyridin-4-yl]methyl]piperidine Tetrahydrochloride] it was 300 nM; in that of `COc1cc(-c2cncc(CN(Cc3ccccc3)C3CCN(Cc4ccnc(-c5cc(OC)c(OC)c(OC)c5)c4)CC3)c2)cc(OC)c1OC` [Example 19, 4-[N-Benzyl-N-[[5-(3,4,5-trimethoxypheny)pyridin-3-yl]methyl]amino]-1-[[2-(3,4,5-trimethoxyphenyl)pyridin-4-yl]methyl]piperidine Tetrahydrochloride], 300 nM.
Same read-out and setting: the same measure for `COc1cc(OC)cc(N(Cc2ccnc(-c3cc(OC)c(OC)c(OC)c3)c2)C2CCN(Cc3ccnc(-c4cc(OC)c(OC)c(OC)c4)c3)CC2)c1` [Example 23, 4-[N-(3,5-Dimethoxyphenyl)-N-[[2-(3,4,5-trimethoxyphenyl)pyridin-4-yl]methyl]amino]-1-[[2-(3,4,5-trimethoxyphenyl)pyridin-4-yl]methyl]piperidine Trihydrochloride]: 30 nM.
Regarding `COc1cc(-c2cc(CN3CCC(N(Cc4ccnc(-c5cc(OC)c(OC)c(OC)c5)c4)c4ccc5c(c4)OCO5)CC3)ccn2)cc(OC)c1OC` [Example 29, 4-[N-(3,4-Methylenedioxyphenyl)-N-[[2-(3,4,5-trimethoxyphenyl)pyridin-4-yl]methyl]amino]-1-[[2-(3,4,5-trimethoxyphenyl)pyridin-4-yl]methyl]piperidine Trihydrochloride], the IC50 is 30 nM.
In turn, `COc1cc(-c2cc(CN3CCC(N(C)Cc4ccnc(-c5cc(OC)c(OC)c(OC)c5)c4)CC3)ccn2)cc(OC)c1OC` [Example 36, 4-[N-Methyl-N-[[2-(3,4,5-trimethoxyphenyl)pyridin-4-yl]methyl]amino]-1-[[2-(3,4,5-trimethoxyphenyl)pyridin-4-yl]methyl]piperidine Tetrahydrochloride] returned an IC50 of 200 nM.
Consider `COc1cc(-c2cc(CN3CCC(N(Cc4ccnc(-c5cc(OC)c(OC)c(OC)c5)c4)c4ccccc4)CC3)ccn2)cc(OC)c1OC` [Example 42, 4-[N-Phenyl-N-[[2-(3,4,5-trimethoxyphenyl)pyridin-4-yl]methyl]amino]-1-[[2-(3,4,5-trimethoxyphenyl)pyridin-4-yl]methyl]piperidine Trihydrochloride], for which the 50% inhibitory concentration (IC50) was found to be 70 nM.
The compound `COc1ccc(N(Cc2ccnc(-c3cc(OC)c(OC)c(OC)c3)c2)C2CCN(Cc3cncc(-c4cc(OC)c(OC)c(OC)c4)c3)CC2)cc1` [Example 67, 4-[N-(4-Methoxyphenyl)-N-[[2-(3,4,5-trimethoxyphenyl)pyridin-4-yl]methyl]amino]-1-[[3-(3,4,5-trimethoxyphenyl)pyridin-5-yl]methyl]piperidine Trihydrochloride] yielded an IC50 of 90 nM.
The same measure, in the same setting: the same measure for `COc1cccc(N(Cc2ccnc(-c3cc(OC)c(OC)c(OC)c3)c2)C2CCN(Cc3ccnc(-c4cc(OC)c(OC)c(OC)c4)c3)CC2)c1` [Example 88, 4-[N-(3-Methoxyphenyl)-N-[[2-(3,4,5-trimethoxyphenyl)pyridin-4-yl]methyl]amino]-1-[[2-(3,4,5-trimethoxyphenyl)pyridin-4-yl]methyl]piperidine Trihydrochloride]: 70 nM; for `COc1cccc(N(Cc2ccnc(-c3cc(OC)c(OC)c(OC)c3)c2)C2CCN(Cc3cncc(-c4cc(OC)c(OC)c(OC)c4)c3)CC2)c1` [Example 89, 4-[N-(3-Methoxyphenyl)-N-[[2-(3,4,5-trimethoxyphenyl)pyridin-4-yl]methyl]amino]-1-[[3-(3,4,5-trimethoxyphenyl)pyridin-5-yl]methyl]piperidine Trihydrochloride]: 90 nM; for `COc1cc(-c2cc(CN3CCC(N(Cc4ccnc(-c5cc(OC)c(OC)c(OC)c5)c4)c4ccc(SC)cc4)CC3)ccn2)cc(OC)c1OC` [Example 111, 1-[[2-(3,4,5-Trimethoxyphenyl)pyridin-4-yl]methyl]-4-[N-[[2-(3,4,5-trimethoxyphenyl)pyridin-4-yl]methyl]-N-(4-methylthiophenyl)amino]piperidine Trihydrochloride]: 80 nM.
Still for that read-out and setting: the same measure for `COc1cc(-c2cc(CN3CCC(N(Cc4ccnc(-c5cc(OC)c(OC)c(OC)c5)c4)c4ccc(F)cc4)CC3)ccn2)cc(OC)c1OC` [Example 157, 4-[N-(4-Fluorophenyl)-N-[[2-(3,4,5-trimethoxyphenyl)pyridin-4-yl]methyl]amino]-1-[[2-(3,4,5-trimethoxyphenyl)pyridin-4-yl]methyl]piperidine Trihydrochloride]: 90 nM.

Still in this test, the particulars now being: examined similar to the Test Example 1 procedure; even at a concentration as high as 10 μM.
As for `c1cc(CNC2CCN(Cc3ccncc3)CC2)ccn1` [Preparation Example 91, 1-(4-Pycolyl)-4-(4-pycolylamino)piperidine Tetrahydrochloride, reference compound], the “inhibitory effect on cell adhesion (result in words)” value was “inactive”.
